According to US20070161643A1, “Pyridin-2-one compounds useful as inhibitors of thrombin” (priority 2004, published 2007):

Target: T1, Human α-thrombin (Homo sapiens, UniProt P00734)
T1 construct: 12 μL of α-thrombin solution (Human α-thrombin, Sigma Chemical Co. or Hematologic Technologies); purchased Sigma Chemical Co. or Hematologic Technologies
Assay: Test B: Determination of thrombin inhibition with a chromogenic, robotic assay
Assay type: biochemical
Protocol: The thrombin inhibitor potency is measured with a chromogenic substrate method, in a Plato 3300 robotic microplate processor (Rosys AG, CH-8634 Hombrechtikon, Switzerland), using 96-well, half volume microtitre plates (Costar, Cambridge, Mass., USA; Cat No 3690). Stock solutions of test substance in DMSO (72 μL), 0.1-1 mmol/L, are diluted serially 1:3 (24+48 μL) with DMSO to obtain ten different concentrations, which are analysed as samples in the assay. 2 μL of test sample is diluted with 124 μL assay buffer, 12 μL of chromogenic substrate solution (S-2366, Chromogenix, Mölndal, Sweden) in assay buffer and finally 12 μL of α-thrombin solution (Human α-thrombin, Sigma Chemical Co. or Hematologic Technologies) in assay buffer, are added, and the samples mixed. The final assay concentrations are: test substance 0.00068-133 μmol/L, S-2366 0.30 mmol/L, α-thrombin 0.020 NIHU/mL. The linear absorbance increment during 40 minutes incubation at 37° C. is used for calculation of percentage inhibition for the test samples, as compared to blanks without inhibitor.

IC50: 92.2 nM
SMILES: Cc1ccc(C)c(CCNn2ccc(C)c(CC(=O)NCc3ccc(C(=N)N)cc3)c2=O)c1 [2(xi), N-(4-Carbamimidoylbenzyl)-2-{1-[2-(2,5-dimethylphenyl)ethylamino]-4-methyl-2-oxo-1,2-dihydropyridin-3-yl}acetamide]
